From patent publication US20240252456A1, “ORAL COMPOSITION, SKIN COSMETIC AND HAIR COSMETIC” (MARUZEN PHARMACEUTICALS CO., LTD., priority 2021, published 2024) come the findings set out here.

Test [1] has as its system Normal human dermal fibroblasts (NB1RGB). The test can be described thus: Glutathione production promotive action test (dermal fibroblasts). It counts as cell-based. The following applies: 24 hours. How it is done:
Normal human dermal fibroblasts (NB1RGB) were cultured using α-modified Eagle's minimum essential medium (α-MEM) containing 10% FBS, and then the cells were collected by a trypsin treatment. The collected cells were diluted with α-MEM containing 10% FBS to a cell density of 2.0×10^5 cells/mL, then seeded with 200 μL per well in a 48-well plate, and cultured for 48 hours.
After culturing, the medium was removed, 200 μL of each of test samples (Samples 1 to 3, see Table 14 below for final concentrations) dissolved in Dulbecco's modified Eagle's medium (DMEM) containing 1% FBS was added to each well, and culturing was further performed for 24 hours. As a control, culturing was performed in the same manner using DMEM containing 1% FBS to which no test sample was added. After the culturing was completed, the medium was removed from each well, and the cells were washed with 400 μL of PBS(−) buffer solution and then lysed using 150 μL of M-PER (available from PIERCE).
Quantitative determination of total glutathione was performed using 100 μL of the lysed cells. That is, 100 μL of lysed cell extract, 50 μL of 0.1 mol/L phosphate buffer solution, 25 μL of 2 mmol/L NADPH, and 25 μL of 3.2 unit/mL glutathione reductase were added to a 96-well plate and heated at 37° C. for 10 minutes, then 25 μL of 10 mmol/L 5,5′-dithiobis(2-nitrobenzoic acid) was added, and the absorbance at a wavelength of 412 nm was measured until 5 minutes later to determine ΔOD/min. The total glutathione concentration was calculated based on a calibration curve created using oxidized glutathione (available from FUJIFILM Wako Pure Chemical Corporation). After correcting the obtained value to the glutathione value per total protein amount, the glutathione production promotion rate (%) was calculated using the following equation.
Terms in the equation represent the following respective ones. • A: Glutathione amount per total protein amount without sample addition • B: Glutathione amount per total protein amount with test sample addition

Test [2] deals with T1, testosterone 5α-reductase (S-9, rat liver homogenate) (Rattus norvegicus, UniProt P24008).
T1 construct: tissue Oriental Yeast Co., Ltd. S-9; host or cells: rat liver homogenate (S-9 fraction)
T1 sequence (P24008 1-259): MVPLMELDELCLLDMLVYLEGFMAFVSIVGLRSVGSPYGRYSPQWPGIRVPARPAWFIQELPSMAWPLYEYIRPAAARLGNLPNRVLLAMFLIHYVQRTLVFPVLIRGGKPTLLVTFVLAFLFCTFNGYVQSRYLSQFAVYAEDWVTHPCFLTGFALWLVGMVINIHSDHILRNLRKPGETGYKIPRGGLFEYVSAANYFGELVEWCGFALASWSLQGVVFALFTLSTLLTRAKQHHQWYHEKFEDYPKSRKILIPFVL
The test can be described thus: Testosterone 5α-reductase inhibitory action test. The following applies: rat liver S-9, read-out: Testosterone 5 α-reductase inhibition rate; for inhibition at 2000 µM: 2000 μmol/L; for inhibition at 8000 µM: 8000 μmol/L. It counts as biochemical. How it is done:
In a V-bottom test tube with a lid, 20 μL of a 4.2 mg/mL testosterone (available from FUJIFILM Wako Pure Chemical Corporation) solution prepared with propylene glycol and 825 μL of 5 mmol/L Tris-HCl (pH 7.13) buffer solution containing 1 mg/mL NADPH were mixed.
Furthermore, 80 μL of each of test sample solutions (Samples 1 to 3, see Table 24 below for final concentrations) prepared with 80% ethanol and 75 μL of S-9 (available from Oriental Yeast Co., Ltd., rat liver homogenate) were added, mixed, and incubated at 37° C. for 60 minutes. After that, 1 mL of methylene chloride was added to stop the reaction. This was centrifuged (1600×g, 10 minutes), the methylene chloride layer was separated, and the separated methylene chloride layer was subjected to gas chromatography analysis under the following conditions to determine the concentrations of 3α-androstanediol, 5α-dihydrotestosterone (5α-DHT), and testosterone. As a control, the same process was performed using the same amount (80 μL) of the sample solvent in place of the test sample solution, and the control was subjected to gas chromatography analysis.
• Device used: Shimadzu GC-2010 (available from Shimadzu Corporation) • Column: DB-1701 (inner diameter: 0.53 mm, length: 30 m, film thickness: 1.0 μm) (available from J&W Scientific) • Column temperature: 240° C. • Inlet temperature: 300° C. • Detector: FID • Sample injection amount: 1 μL • Split ratio: 1:2 • Carrier gas: Nitrogen gas • Carrier gas flow rate: 12 mL/min
Quantitative determination of the concentrations of 3α-androstanediol, 5α-DHT, and testosterone was performed by the following method.
Standard products of 3α-androstanediol, 5α-DHT, and testosterone were each dissolved in ethanol, and the solutions were subjected to gas chromatography analysis. From the concentrations (μg/mL) and peak areas of these compounds, the correspondence relationship between the peak area and the concentration of each compound was preliminarily obtained. Then, the concentration per peak area of each of 3α-androstanediol, 5α-DHT, and testosterone after the reaction between testosterone and S-9 was obtained based on the following equation (1) using the correspondence relationship which was preliminarily obtained.
Terms in the equation represent the following respective ones. • A: Concentration of 3α-androstanediol, 5α-DHT, or testosterone • B: Peak area of 3α-androstanediol, 5α-DHT, or testosterone • C: Concentration of standard product • D: Peak area of standard product
Using the compound concentration calculated based on the equation (1), the conversion ratio (concentration ratio between the concentration of 3α-androstanediol and 5α-DHT produced by reduction of testosterone due to testosterone 5α-reductase and the initial concentration of testosterone) was calculated based on the following equation (2).
Terms in the equation represent the following respective ones. • E: Concentration of 3α-androstanediol (μg/mL) • F: Concentration of 5α-DHT (μg/mL) • G: Concentration of testosterone (μg/mL)
Using the conversion ratio calculated based on the equation (2), the testosterone 5α-reductase inhibition rate (%) was calculated based on the following equation (3).
Terms in the equation represent the following respective ones. • H: Conversion ratio with test sample addition • I: Conversion ratio without sample addition

Regarding `O=C(O)CCc1ccccc1` [Sample 3, 3-phenylpropionic acid], in test [1] (1000 μmol/L), the “Glutathione production promotion rate” value was found to be 129.9%. In test [2], the inhibition at 2000 µM came to 76.4% and the inhibition at 8000 µM was found to be 100%.

As for `O=C(O)CCc1ccc(O)cc1` [Sample 2, 3-(4-Hydroxyphenyl)propionic acid], in test [1] (1000 μmol/L), the “Glutathione production promotion rate” value was 131.7%. Also, in test [2], the inhibition at 2000 µM amounted to 71% and the inhibition at 8000 µM worked out at 100%.

Turning to `O=C(O)CCc1ccc(O)c(O)c1` [Sample 1, 3,4-Dihydroxyhydrocinnamic acid], the “Glutathione production promotion rate” value in test [1] (62.5 μmol/L) was found to be 125.8%. For the same compound, in test [2], the inhibition at 2000 µM turned out to be 34.3% and the inhibition at 8000 µM worked out at 100%.
